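Tested at 5 concentrations; 48 h exposure; 96-well plates; endpoints linearly interpolated, else capped at highest concentration. GI50 = concentration required for 50% inhibition of growth. TGI is the concentration that stops growth completely.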
How the values were obtained:
Assay in all cases: inhibition of tumour cell growth, NCI panel, 48 h
[1] = tested on: ACHN renal
[2] = tested on: NCI-H226 lung
[3] = tested on: NCI/ADR-RES ovarian
[4] = tested on: HT29 colon
[5] = tested on: SNB-19 CNS
[6] = tested on: EKVX NSCLC
[7] = tested on: LOX IMVI melanoma
[8] = tested on: SN12C renal
[9] = tested on: RPMI-8226 leukemia
[10] = tested on: HCC-2998 colon
[11] = tested on: BT-549 breast
[12] = tested on: MDA-MB-231 breast
[13] = tested on: PC-3 prostate
[14] = tested on: SNB-75 CNS
[15] = tested on: NCI-H23 lung
[16] = tested on: SF-295 CNS
[17] = tested on: HOP-62 NSCLC
[18] = tested on: HL-60(TB) leukemia
[19] = tested on: UO-31 renal
[20] = tested on: OVCAR-3 ovarian
[21] = tested on: SW-620 colon
[22] = tested on: OVCAR-8 ovarian
[23] = tested on: HS 578T breast
[24] = tested on: HOP-92 NSCLC
[25] = tested on: TK-10 renal
[26] = tested on: SK-MEL-2 melanoma
[27] = tested on: SF-539 CNS

`c1ccc2[nH]c(-c3ccc(Nc4nc(N5CCCCC5)nc(N5CCOCC5)n4)cc3)nc2c1` gave a GI50 [1] of 3.14 µM, a TGI [1] greater than 100 µM and a GI50 [2] of 3.2 µM. It also gave a TGI [2] of 17.7 µM, a GI50 [3] of 4.69 µM and a TGI [3] of 55.2 µM. For the same molecule, the GI50 [4] was 2.44 µM, the TGI [4] was 5.56 µM and the GI50 [5] was 3.73 µM. It also gave a TGI [5] of 81.9 µM, a GI50 [6] of 2.68 µM and a TGI [6] greater than 100 µM. For the same molecule, the GI50 [7] was 1.75 µM, the TGI [7] was 3.58 µM and the GI50 [8] was 5.4 µM. For the same molecule, the TGI [8] was 53.2 µM, the GI50 [9] was 2.23 µM and the TGI [9] was 6.58 µM. The GI50 [10] was 3.74 µM, the TGI [10] was greater than 100 µM and the GI50 [11] was 2.07 µM. It also gave a TGI [11] of 5.2 µM, a GI50 [12] of 2.5 µM and a TGI [12] of 7.52 µM. It also gave a GI50 [13] of 3.05 µM, a TGI [13] of 9.13 µM and a GI50 [14] of 2.1 µM. It also gave a TGI [14] of 16.9 µM, a GI50 [15] of 3.05 µM and a TGI [15] of 15.7 µM. The GI50 [16] was 1.85 µM, the TGI [16] was 4.6 µM and the GI50 [17] was 1.92 µM. The TGI [17] was 4.32 µM, the GI50 [18] was 2.42 µM and the TGI [18] was 5.8 µM. It also gave a GI50 [19] of 2 µM, a TGI [19] of 5.14 µM and a GI50 [20] of 2.4 µM. It also gave a TGI [20] of 6.19 µM, a GI50 [21] of 2.34 µM and a TGI [21] of 5.87 µM. For the same molecule, the GI50 [22] was 3.24 µM, the TGI [22] was 14.3 µM and the GI50 [23] was 2.56 µM. For the same molecule, the TGI [23] was 8.61 µM, the GI50 [24] was 1.99 µM and the TGI [24] was 4.32 µM. The GI50 [25] was 3.21 µM, the TGI [25] was 9.26 µM and the GI50 [26] was 2.34 µM. The TGI [26] was 5.36 µM and the GI50 [27] was 2.14 µM.
